Literature values, collected in patent publication US9579280B2, “Controlled release delivery system for nasal applications and method of treatment” (MATTERN PHARMA AG, priority 2003, dated 2017).
Where two headings read alike, the source gives them in different places.

Tests used:
female sexual response = details: for sexual arousal: sublingual or single vaginal dose
[1] = nasal
[2] = biological target: T1, sex hormone binding globulin (SHBG) (Homo sapiens, UniProt P04278)
T1 sequence (P04278 30-402): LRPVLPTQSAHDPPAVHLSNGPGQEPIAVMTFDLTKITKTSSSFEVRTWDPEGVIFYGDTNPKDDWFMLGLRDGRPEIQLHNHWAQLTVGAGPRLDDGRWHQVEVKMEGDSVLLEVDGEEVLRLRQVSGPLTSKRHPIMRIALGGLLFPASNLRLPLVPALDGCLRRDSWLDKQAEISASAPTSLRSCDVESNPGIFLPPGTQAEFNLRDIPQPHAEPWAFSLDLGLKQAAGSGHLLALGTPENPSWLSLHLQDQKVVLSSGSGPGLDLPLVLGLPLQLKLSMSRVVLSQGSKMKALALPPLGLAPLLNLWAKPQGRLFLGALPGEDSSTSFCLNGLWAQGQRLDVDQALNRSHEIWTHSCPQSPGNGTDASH

[3] = relative to water

## CCCCCCCCCCC(=O)O[C@H]1CC[C@H]2[C@@H]3CCC4=CC(=O)CC[C@]4(C)[C@H]3CC[C@]12C [testosterone undecanoate]
Female sexual response
  sexual arousal: triggers sexual arousal

## CCC(=O)O[C@H]1CC[C@H]2[C@@H]3CCC4=CC(=O)CC[C@]4(C)[C@H]3CC[C@]12C [testosterone propionate]
Female sexual response; single vaginal dose
  time of testosterone and free testosterone peak: 5.5 h
Female sexual response
  sexual arousal: does not trigger sexual arousal

## CN(C)CC(=O)O[C@H]1CC[C@H]2[C@@H]3CCC4=CC(=O)CC[C@]4(C)[C@H]3CC[C@]12C [testosterone 17β-N,N-dimethylglycinate]
[1]
  elimination half-life: about fifty-five
  serum levels compared with intravenous administration: equal to intravenous administration
[1]; 25 mg dose
  time to peak plasma concentration: twelve
[1]; 50 mg dose
  time to peak plasma concentration: twenty

## C[C@]12CC[C@H]3[C@@H](CCC4=CC(=O)CC[C@@]43C)[C@@H]1CC[C@@H]2O [Testosterone, testosterone]
[2]
  fraction of circulating plasma testosterone bound to SHBG: Approximately 40%
[2]; in men
  unbound (free) fraction: 2%
[2]; in women
  unbound (free) fraction: up to 3%
[3]
  solubility in vegetable oil: somewhat more soluble in vegetable oil
